Measurements as given in US20100069407A1, “CXCR2 inhibitors” (priority 2006, published 2010).

Biological target: T1, human CXCR2 receptor (Homo sapiens, UniProt P25025)
T1 construct: purchased Biosignal Packard Inc; host or cells: Chinese hamster ovary cell (CHO-K1) membranes
T1 sequence (P25025 1-360): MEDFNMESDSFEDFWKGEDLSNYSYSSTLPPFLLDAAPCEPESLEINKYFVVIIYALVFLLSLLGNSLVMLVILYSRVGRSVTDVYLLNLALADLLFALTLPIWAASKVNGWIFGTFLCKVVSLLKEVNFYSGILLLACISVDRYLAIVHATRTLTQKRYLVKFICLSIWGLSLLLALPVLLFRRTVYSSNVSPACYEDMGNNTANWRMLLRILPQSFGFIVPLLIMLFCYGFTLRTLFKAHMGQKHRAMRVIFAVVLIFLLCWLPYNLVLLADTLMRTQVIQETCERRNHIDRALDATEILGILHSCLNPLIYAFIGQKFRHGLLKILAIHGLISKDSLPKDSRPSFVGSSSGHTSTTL
Assay: [35S]-GTPγS binding assay for human CXCR2 receptor using SPA technology
Format: biochemical
Conditions: CHO-K1 membranes expressing human CXCR2; 100 nM IL-8 stimulation
Method: The assay is performed in duplicate in 96 well Optiplate™ microplate in a final volume of 250 μl per well. Compounds are diluted in DMSO (0.5% final concentration) and incubated in 20 mM HEPES buffer pH 7.4 containing 10 mM MgCl2, 100 mM NaCl, 1 mM EDTA plus 100 nM IL-8, 50 μM GDP and 500 μM [^35S]GTPγS per well. SPA beads (1 mg/well final concentration) were pre-mixed with the membranes (10 μg/well final concentration) in assay buffer: 20 mM HEPES buffer pH 7.4 containing 10 mM MgCl2, 100 mM NaCl, 1 mM EDTA. The bead membrane mixture is added to each well, plates are sealed and incubated at room temperature for 60 minutes. The plate is centrifuged and read on Packard TopCount™ scintillation counter, program [^35S dpm] for 1 min/well. Data are expressed as the % response to 100 nM IL-8 minus basal.

IC50: 2400 nM
Structure (SMILES): CCc1nc2nc(CSc3cccc(F)c3F)cc(O)n2n1 [Example 4]
